Measured values as given in ChEMBL document CHEMBL1127052, “Renin inhibitors containing a pyridyl amino diol derived C-terminus” (J Med Chem, 1993).

What was measured:
Renin [1] = target: T1, Renin (Homo sapiens, UniProt P00797); test: In vitro inhibition of purified human kidney renin
T1 sequence (P00797 whole entry): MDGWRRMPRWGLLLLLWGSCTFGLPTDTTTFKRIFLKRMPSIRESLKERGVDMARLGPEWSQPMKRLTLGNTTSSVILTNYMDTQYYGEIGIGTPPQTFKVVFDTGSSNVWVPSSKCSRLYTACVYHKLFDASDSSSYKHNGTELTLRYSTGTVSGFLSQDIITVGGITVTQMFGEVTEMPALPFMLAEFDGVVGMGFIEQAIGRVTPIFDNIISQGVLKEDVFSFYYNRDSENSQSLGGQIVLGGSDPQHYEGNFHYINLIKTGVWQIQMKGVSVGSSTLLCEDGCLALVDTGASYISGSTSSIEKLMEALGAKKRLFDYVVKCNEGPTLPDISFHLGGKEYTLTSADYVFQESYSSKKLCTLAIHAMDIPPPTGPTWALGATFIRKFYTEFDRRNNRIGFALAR

Renin [2] = target: T1, Renin; test: In vitro inhibition of renin in human plasma; type: cell-free
[3] = Half-life was determined; type: ADME; details: human
Cathepsin D = Cathepsin D (Homo sapiens, UniProt P07339); test: Selectivity against human cathepsin D
Sequence of Cathepsin D (P07339 65-162 limits assumed): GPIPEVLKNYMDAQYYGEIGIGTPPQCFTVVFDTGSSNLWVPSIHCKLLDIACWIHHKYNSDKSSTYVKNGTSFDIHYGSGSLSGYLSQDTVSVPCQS
Sequence of Cathepsin D (P07339 169-412 limits assumed): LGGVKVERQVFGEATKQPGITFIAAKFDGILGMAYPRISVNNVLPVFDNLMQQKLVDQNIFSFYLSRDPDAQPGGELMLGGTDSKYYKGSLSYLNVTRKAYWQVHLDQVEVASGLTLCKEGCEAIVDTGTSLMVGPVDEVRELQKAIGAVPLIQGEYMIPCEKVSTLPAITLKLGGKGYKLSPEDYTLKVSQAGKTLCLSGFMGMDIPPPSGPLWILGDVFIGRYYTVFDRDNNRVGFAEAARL

Pepsin A = Pepsin A (Homo sapiens, UniProt P0DJD9); test: Selectivity against human pepsin
Sequence of Pepsin A (P0DJD9 whole entry): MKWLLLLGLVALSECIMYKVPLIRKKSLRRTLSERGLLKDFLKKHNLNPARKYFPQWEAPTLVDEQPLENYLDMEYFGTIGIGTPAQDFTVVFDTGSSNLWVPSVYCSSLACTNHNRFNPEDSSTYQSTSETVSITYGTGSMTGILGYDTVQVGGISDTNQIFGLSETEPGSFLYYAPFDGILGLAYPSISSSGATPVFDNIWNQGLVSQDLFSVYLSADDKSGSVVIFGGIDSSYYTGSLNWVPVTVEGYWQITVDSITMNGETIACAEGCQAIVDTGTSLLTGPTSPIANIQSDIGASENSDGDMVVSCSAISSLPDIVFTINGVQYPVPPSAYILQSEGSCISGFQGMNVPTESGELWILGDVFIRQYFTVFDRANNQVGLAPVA

Gastricsin = target: T2, Gastricsin (Homo sapiens, UniProt P20142); test: Selectivity against human gastricsin
T2 sequence (P20142 whole entry): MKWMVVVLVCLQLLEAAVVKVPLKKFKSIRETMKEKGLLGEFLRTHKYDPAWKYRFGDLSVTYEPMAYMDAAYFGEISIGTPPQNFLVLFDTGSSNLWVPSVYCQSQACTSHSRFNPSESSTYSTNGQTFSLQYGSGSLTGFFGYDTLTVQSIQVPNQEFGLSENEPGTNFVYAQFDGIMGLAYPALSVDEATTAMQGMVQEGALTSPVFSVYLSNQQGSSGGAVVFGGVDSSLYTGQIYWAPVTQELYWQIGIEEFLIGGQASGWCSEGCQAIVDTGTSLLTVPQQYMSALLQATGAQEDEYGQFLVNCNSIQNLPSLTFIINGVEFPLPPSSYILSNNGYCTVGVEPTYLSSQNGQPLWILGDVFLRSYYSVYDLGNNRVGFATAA

Cathepsin E = target: T3, Cathepsin E (Homo sapiens, UniProt P14091); test: Selectivity against human cathepsin E
T3 sequence (P14091 whole entry): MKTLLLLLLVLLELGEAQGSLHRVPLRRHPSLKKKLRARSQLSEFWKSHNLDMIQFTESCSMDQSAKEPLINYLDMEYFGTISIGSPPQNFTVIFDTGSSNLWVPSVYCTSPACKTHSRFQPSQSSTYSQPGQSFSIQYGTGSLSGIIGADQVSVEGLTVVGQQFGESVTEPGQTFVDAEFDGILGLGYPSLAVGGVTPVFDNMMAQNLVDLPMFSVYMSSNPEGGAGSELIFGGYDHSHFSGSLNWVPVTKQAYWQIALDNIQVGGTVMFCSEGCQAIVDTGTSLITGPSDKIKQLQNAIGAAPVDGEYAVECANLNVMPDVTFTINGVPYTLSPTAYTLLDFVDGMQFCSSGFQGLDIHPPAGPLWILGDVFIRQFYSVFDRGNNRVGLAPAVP

Compound | IC50 (Renin [1]) [nM] | IC50 (Renin [2]) [nM] | half-life [3] [h] | IC50 (Cathepsin D) [nM] | IC50 (Pepsin A) [nM] | IC50 (Gastricsin) [nM] | IC50 (Cathepsin E) [nM]
CC(C)(C)S(=O)(=O)C[C@@H](Cc1ccccc1)C(=O)N[C@@H](Cc1c[nH]cn1)C(=O)N[C@@H](CC1CCCCC1)[C@@H](O)[C@@H](O)CCc1ccccn1 | 0.17 | 0.43 | 2.85 | – | – | – | –
O=C(N[C@@H](Cc1cnc[nH]1)C(=O)N[C@@H](CC1CCCCC1)[C@@H](O)[C@@H](O)CCc1ccccn1)[C@@H](CC(=O)N1CCOCC1)Cc1ccccc1 | 1.1 | 1.1 | 0.367 | – | – | – | –
NC1CCN(S(=O)(=O)C[C@@H](Cc2ccccc2)C(=O)N[C@@H](Cc2cnc[nH]2)C(=O)N[C@@H](CC2CCCCC2)[C@@H](O)[C@@H](O)CCc2ccccn2)CC1 | 0.7 | 0.54 | ~5 | – | – | – | –
CCOC(=O)CCCCC(=O)N[C@@H](Cc1ccccc1)C(=O)N[C@@H](Cc1c[nH]cn1)C(=O)N[C@@H](CC1CCCCC1)[C@@H](O)[C@@H](O)CCc1ccccn1 | 0.69 | 0.75 | – | – | – | – | –
CSC[C@H](NC(=O)[C@@H](CC(=O)N1CCC(N)CC1)Cc1ccccc1)C(=O)N[C@@H](CC1CCCCC1)[C@@H](O)[C@@H](O)CCc1ccccn1 | 0.26 | 0.25 | – | – | – | – | –
N[C@H]1CC[C@@H](C(=O)N[C@@H](Cc2ccccc2)C(=O)N[C@@H](Cc2cnc[nH]2)C(=O)N[C@@H](CC2CCCCC2)[C@@H](O)[C@@H](O)CCc2ccccn2)CC1 | 0.5 | 0.47 | < 0.05 | – | – | – | –
COc1ccc(C[C@H](NC(=O)[C@H]2CC[C@@H](N)CC2)C(=O)N[C@@H](Cc2cnc[nH]2)C(=O)N[C@@H](CC2CCCCC2)[C@@H](O)[C@@H](O)CCc2ccccn2)cc1 | 4.2 | 5.3 | ~1.5 | – | – | – | –
N[C@H]1CC[C@@H](S(=O)(=O)C[C@@H](Cc2ccccc2)C(=O)N[C@@H](Cc2cnc[nH]2)C(=O)N[C@@H](CC2CCCCC2)[C@@H](O)[C@@H](O)CCc2ccccn2)CC1 | 0.31 | 0.31 | – | – | – | – | –
NC1CCN(C(=O)O[C@@H](Cc2ccccc2)C(=O)N[C@@H](Cc2cnc[nH]2)C(=O)N[C@@H](CC2CCCCC2)[C@@H](O)[C@@H](O)CCc2ccccn2)CC1 | 0.53 | 0.37 | – | – | – | – | –
NC1CCN(C(=O)C[C@@H](Cc2ccccc2)C(=O)N[C@@H](Cc2c[nH]cn2)C(=O)N[C@@H](CC2CCCCC2)[C@@H](O)[C@@H](O)CCc2ccccn2)CC1 | – | – | 1.52 | > 100000 | > 100000 | > 100000 | > 100000
CN(CCN(C)C(=O)N1CCOCC1)C(=O)O[C@@H](Cc1ccccc1)C(=O)N[C@@H](Cc1c[nH]cn1)C(=O)N[C@@H](CC1CCCCC1)[C@@H](O)[C@@H](O)CCc1ccccn1 | 0.16 | 0.14 | – | – | – | – | –
NC1CCN(C(=O)C[C@@H](Cc2cccc3ccccc23)C(=O)N[C@@H](Cc2cnc[nH]2)C(=O)N[C@@H](CC2CCCCC2)[C@@H](O)[C@@H](O)CCc2ccccn2)CC1 | 0.13 | 0.79 | – | – | – | – | –
CCC[C@H](NC(=O)[C@@H](CC(=O)N1CCC(N)CC1)Cc1ccccc1)C(=O)N[C@@H](CC1CCCCC1)[C@@H](O)[C@@H](O)CCc1ccccn1 | 0.68 | 1.3 | – | – | – | – | –
